Source: US9757391B2 (priority 2012, dated 2017)
Entries after “also recorded” stand apart in the source; their conditions may differ.

Key:
morphine tolerance [1] = settings: in vivo; cited from earlier work
morphine tolerance [2] = settings: rats, cited from earlier work
morphine tolerant rats = settings: cited from earlier work
mouse [3] = experiment: General pharmacological screen: depression of behaviour; type: in vivo; settings: 300 mg/kg po
Protocol: (§1) A general pharmacological screen was performed on the neuroactive steroid alphadolone.

mouse [4] = experiment: General pharmacological screen: maximum tolerated dose, autonomic signs; type: in vivo; settings: 300 mg/kg po
Protocol: as §1

histotoxic hypoxia = type: in vivo; settings: mouse, 100 mg/kg po; ≧50% indicates significant cerebral protection

C[C@]12CC[C@H](O)CC1=CC[C@@H]1[C@@H]2CC[C@]2(C)C(=O)CC[C@@H]12 [dehydrepiandrsterone]
prevention of morphine tolerance (morphine tolerance [1]): do prevent morphine tolerance

CC(=O)[C@H]1CC[C@H]2[C@@H]3CC=C4C[C@@H](O)CC[C@]4(C)[C@H]3CC[C@]12C [pregnenolone]
prevention of morphine tolerance (morphine tolerance [1]): do prevent morphine tolerance

CN1CC[C@]23c4c5ccc(O)c4O[C@H]2[C@@H](O)C=C[C@H]3[C@H]1C5 [M-IR, morphine]
tail flick latency response to M-IR, after M-SR treatment (morphine tolerance [2]; M-IR 6.25 mg/kg ip, after M-SR 125 mg/kg/day sc with vehicle emulsion, mean±SEM, P<0.001): 20.3±4.8 % MPE
tail flick latency response to M-IR, pre treatment (morphine tolerance [2]; M-IR 6.25 mg/kg ip, before M-SR treatment, mean±SEM): 89.6±2.5 % MPE

etanercept
microglia activation and proinflammatory cytokine production (morphine tolerant rats): inhibited
morphine tolerance (morphine tolerant rats): reversed the morphine tolerance

C[C@]12CC[C@@H](O)C[C@@H]1CC[C@H]1[C@@H]3CC[C@H](C(=O)CO)[C@@]3(C)CC(=O)[C@@H]12 [alphadolone]
depression of behaviour (mouse [3]): no sedation
maximum tolerated dose autonomic signs: body temperature (mouse [4]): temperature elevation
hypoxia KCN test result (histotoxic hypoxia): result = 50; %
occurrence of morphine tolerance (TFL) (morphine tolerance [2]; alphadolone emulsion 250 mg/kg sc co-administered with M-SR): prevented the occurrence of morphine tolerance; also recorded: no significant tolerance occurred
sedation (morphine tolerance [2]; alphadolone emulsion 250 mg/kg sc with M-SR): did not cause sedation; also recorded: caused no sedation

CC(=O)[C@H]1CC[C@H]2[C@@H]3CC[C@H]4C[C@H](O)CC[C@]4(C)[C@H]3CC[C@]12C [allopregnanolone]
prevention of morphine tolerance (morphine tolerance [1]): do prevent morphine tolerance
